# Measured values from patent publication US20120022078A1, “ARYL INDOLE DERIVATIVES” (MSD K.K., priority 2010, published 2012).
# Target: T1, human QRFP receptor (GPR103) (Homo sapiens, UniProt Q96P65)
# T1 construct: expressed in transfected cells; host or cells: NFAT β-Lactamase CHO-K1 host cells (Aurora); membrane specimen
# T1 sequence (Q96P65 1-431): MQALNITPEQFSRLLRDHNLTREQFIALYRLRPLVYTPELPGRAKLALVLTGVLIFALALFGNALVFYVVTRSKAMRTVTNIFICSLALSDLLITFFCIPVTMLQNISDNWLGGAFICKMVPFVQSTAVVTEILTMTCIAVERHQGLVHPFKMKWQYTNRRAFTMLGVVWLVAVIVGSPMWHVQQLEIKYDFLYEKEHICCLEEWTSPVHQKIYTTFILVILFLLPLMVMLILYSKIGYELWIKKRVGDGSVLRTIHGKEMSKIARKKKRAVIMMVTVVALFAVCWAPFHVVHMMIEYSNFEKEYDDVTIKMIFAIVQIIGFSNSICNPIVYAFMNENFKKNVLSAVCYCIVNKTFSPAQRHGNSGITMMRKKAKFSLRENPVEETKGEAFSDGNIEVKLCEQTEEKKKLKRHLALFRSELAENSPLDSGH
# Assay: QRFP43 binding inhibition test ([125I]QRFP43, membranes of GPR103-expressing CHO-K1 cells)
# Details: membrane specimen from QRFP receptor (GPR103) expressing cells, 25° C., 1 hour, 20,000 cpm [125I]QRFP43; read-out: IC50 (50% inhibition concentration for the specific [125I] QRFP43 binding)
# Description: The cDNA sequence [Accession No. NM_198179] that codes for human QRFP receptor (GPR103) was cloned into an expression vector pEF1V5-HisB (Invitrogen). The expression vector so prepared was transfected into NFAT β-Lactamase CHO-K1 host cells (Aurora) to obtain QRFP receptor (GPR103) expressing cells, using the cationic lipid method [see Proceedings of the National Academy of Sciences of the United States of America, Vol. 84, p. 7413 (1987)].
# The membrane specimen prepared from the QRFP receptor (GPR103) expressing cells was incubated at 25° C. for 1 hour with a test compound and 20,000 cpm [^125I ] QRFP43 (PerkinElmer, Inc.) in an assay buffer (50 mM Tris-HCl, 1 mM EDTA, and 0.1% BSA, pH 7.4), followed by filtration using a glass filter GF/C. After washing with a 50 mM Tris-HCl (containing 2 mM EDTA, 10 mM MgCl2, and 0.04% Tween-20) buffer at pH 7.4, the radioactivity on the glass filter was determined using a gamma counter. Non-specific binding was measured in the presence of 1 μM peptide QRFP43, and 50% inhibition concentration (IC50 value) of the test compound for the specific [^125I] QRFP43 binding was determined [see Endocrinology, Vol. 131, p. 2090 (1992)].
row,IC50 [nM],SMILES
1,111,"CN1CCN(Cc2cncc(-c3cc4ccccc4n3C)c2)CC1 [Example 5, 1-Methyl-2-{5-[(4-methylpiperazin-1-yl)methyl]pyridin-3-yl}-1H-indole]"
2,49.8,"CN1CCN(Cc2cnc(-c3cc4ccccc4n3C)s2)CC1 [Example 1, 1-Methyl-2-{5-[(4-methylpiperazin-1-yl)methyl]-1,3-thiazol-2-yl}-1H-indole]"
3,48.3,"CN1CCN(Cc2ccc(F)c(-c3cc4ccccc4n3C)c2)CC1 [Example 3, 2-{2-Fluoro-5-[(4-methylpiperazin-1-yl)methyl]phenyl}-1-methyl-1H-indole]"
4,52.5,CN1CCN(Cc2cnc(F)c(-c3cc4ccccc4n3C)c2)CC1 [Example 4]
5,33.1,CN1CCN(Cc2cc(-c3cc4ccccc4n3C)ncc2F)CC1 [Example 2]
